System: Bmi-1
Assay: Sandwich ELISA Assay (Bmi-1 ELISA) in HT-1080 cells
Format: cell-based
Summary of the method: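 Bmi-1 in lysates was measured by a three-antibody ELISA with TMB, OD450 minus OD570 reference, interpolated on a GST-tagged recombinant Bmi-1 standard curve, 0-8000 pg/mL. Lysates came from HT-1080 cells treated 40-48 h with compound, final DMSO 0.5%.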

**Q.** With `Cc1nc2ncccc2n1-c1nc(N)c(F)c(Nc2ccc(C(F)(F)F)cc2)n1` [Cpd 137, 5-fluoro-2-(2-methyl-1H-imidazo[4,5-b]pyridin-1-yl)-N-[4-(trifluoromethyl]phenyl]pyrimidine-4,6-diamine] as the compound, how does the EC50 read?
**A.** 10 to 100 nM

**Q.** `Cc1nc2ncccc2n1-c1nc(N)c(F)c(Nc2ccc(OC(F)F)cc2)n1` [Cpd 138, N-[4-(difluoromethoxy)phenyl]-5-fluoro-2-(2-methyl-1H-imidazo[4,5-b]pyridin-1-yl)pyrimidine-4,6-diamine] was tested. Which EC50 did it give?
**A.** 10 to 100 nM

**Q.** `Cc1nc2ncccc2n1-c1nc(N)c(F)c(Nc2ccc(OC(F)F)c(F)c2)n1` [Cpd 139, N-[4-(difluoromethoxy)-3-fluorophenyl]-5-fluoro-2-(2-methyl-1H-imidazo[4,5-b]pyridin-1-yl)pyrimidine-4,6-diamine] was tested. Which EC50 did it give?
**A.** 100 to 3000 nM

**Q.** `Nc1nc(-n2c(C3CC3)nc3c(F)cccc32)nc(Nc2ccc(C(F)(F)F)cc2)c1F` [Cpd 140, 2-(2-cyclopropyl-4-fluoro-1H-benzimidazol-1-yl)-5-fluoro-N-[4-(trifluoromethyl]phenyl]pyrimidine-4,6-diamine] was tested. Which EC50 did it give?
**A.** 10 to 100 nM

**Q.** With `Nc1nc(-n2c(C3CC3)nc3c(F)cccc32)nc(Nc2ccc(OC(F)F)cc2)c1F` [Cpd 141, 2-(2-cyclopropyl-4-fluoro-1H-benzimidazol-1-yl)-N-[4-(difluoromethoxy)phenyl]-5-fluoropyrimidine-4,6-diamine] as the compound, how does the EC50 read?
**A.** 10 to 100 nM

**Q.** How did the EC50 turn out when `Nc1nc(-n2c(C3CC3)nc3c(F)cccc32)nc(Nc2ccc(OC(F)F)c(F)c2)c1F` [Cpd 142, 2-(2-cyclopropyl-4-fluoro-1H-benzimidazol-1-yl)-N-[4-(difluoromethoxy)-3-fluorophenyl]-5-fluoropyrimidine-4,6-diamine] was run?
**A.** 10 to 100 nM

**Q.** `CSc1ccc(Nc2cc(N)nc(-n3c(C)nc4ccccc43)n2)cc1` [Cpd 146, 2-(2-methyl-1H-benzimidazol-1-yl)-N-[4-(methylsulfanyl]phenyl]pyrimidine-4,6-diamine] was tested. Which EC50 did it give?
**A.** 10 to 100 nM

**Q.** `CC1(c2nc3ccccc3n2-c2nc(N)cc(Nc3ccc(C(F)(F)F)cc3)n2)CC1` [Cpd 147, 2-[2-(1-methylcyclopropyl)-1H-benzimidazol-1-yl]-N-[4-(trifluoromethyl]phenyl]pyrimidine-4,6-diamine] was tested. Which EC50 did it give?
**A.** 100 to 3000 nM

**Q.** With `CC1(c2nc3ccccc3n2-c2nc(N)cc(Nc3ccc(OC(F)F)cc3)n2)CC1` [Cpd 148, N-[4-(difluoromethoxy)phenyl]-2-[2-(1-methylcyclopropyl)-1H-benzimidazol-1-yl]pyrimidine-4,6-diamine] as the compound, how does the EC50 read?
**A.** 100 to 3000 nM

**Q.** With `Cc1nn2ccccc2c1-c1nc(N)cc(Nc2ccc(C(F)(F)F)cc2)n1` [Cpd 154, 2-(2-methylpyrazolo[1,5-a]pyridin-3-yl)-N-[4-(trifluoromethyl]phenyl]pyrimidine-4,6-diamine] as the compound, how does the EC50 read?
**A.** 100 to 3000 nM

**Q.** With `Nc1nc(-n2c(C3CC3)nc3ncc(F)cc32)nc(Nc2ccc(OC(F)F)cc2)c1F` [Cpd 155, 2-(2-cyclopropyl-6-fluoro-1H-imidazo[4,5-b]pyridin-1-yl)-N-[4-(difluoromethoxy)phenyl]-5-fluoropyrimidine-4,6-diamine] as the compound, how does the EC50 read?
**A.** 10 to 100 nM

**Q.** Which EC50 does the source give for `CCc1nc2ccccc2n1-c1nc(N)cc(Nc2ccc(OC(F)F)cc2)n1` [Cpd 156, N-[4-(difluoromethoxy)phenyl]-2-(2-ethyl-1H-benzimidazol-1-yl)pyrimidine-4,6-diamine] here?
**A.** 1 to 10 nM

**Q.** For `CCc1nc2ccccc2n1-c1nc(N)cc(Nc2ccc(OC(F)F)c(F)c2)n1` [Cpd 157, N-[4-(difluoromethoxy)-3-fluorophenyl]-2-(2-ethyl-1H-benzimidazol-1-yl)pyrimidine-4,6-diamine], which EC50 is on record?
**A.** 10 to 100 nM

**Q.** How did the EC50 turn out when `Cc1nc2cc(Cl)ccc2n1-c1nc(N)c(F)c(Nc2ccc(C(F)(F)F)cc2)n1` [Cpd 158, 2-(5-chloro-2-methyl-1H-benzimidazol-1-yl)-5-fluoro-N-[4-(trifluoromethyl)phenyl]pyrimidine-4,6-diamine] was run?
**A.** 100 to 3000 nM

**Q.** With `Cc1nc2cc(Cl)ccc2n1-c1nc(N)c(F)c(Nc2ccc(OC(F)F)cc2)n1` [Cpd 159, 2-(5-chloro-2-methyl-1H-benzimidazol-1-yl)-N-[4-(difluoromethoxy)phenyl]-5-fluoropyrimidine-4,6-diamine] as the compound, how does the EC50 read?
**A.** 100 to 3000 nM

**Q.** `Cc1nc2ccc(Cl)cc2n1-c1nc(N)c(F)c(Nc2ccc(C(F)(F)F)cc2)n1` [Cpd 160, 2-(6-chloro-2-methyl-1H-benzimidazol-1-yl)-5-fluoro-N-[4-(trifluoromethyl)phenyl]pyrimidine-4,6-diamine] was tested. Which EC50 did it give?
**A.** 10 to 100 nM

**Q.** For `Cc1nc2ccc(Cl)cc2n1-c1nc(N)c(F)c(Nc2ccc(OC(F)F)cc2)n1` [Cpd 161, 2-(6-chloro-2-methyl-1H-benzimidazol-1-yl)-N-[4-(difluoromethoxy)phenyl]-5-fluoropyrimidine-4,6-diamine], which EC50 is on record?
**A.** 10 to 100 nM

**Q.** With `CCc1nc2cc(F)ccc2n1-c1nc(N)c(F)c(Nc2ccc(C(F)(F)F)cc2)n1` [Cpd 162, 2-(2-ethyl-5-fluoro-1H-benzimidazol-1-yl)-5-fluoro-N-[4-(trifluoromethyl)phenyl]pyrimidine-4,6-diamine] as the compound, how does the EC50 read?
**A.** 10 to 100 nM

**Q.** Which EC50 does the source give for `CCc1nc2cc(F)ccc2n1-c1nc(N)c(F)c(Nc2ccc(OC(F)F)cc2)n1` [Cpd 163, N-[4-(difluoromethoxy)phenyl]-2-(2-ethyl-5-fluoro-1H-benzimidazol-1-yl)-5-fluoropyrimidine-4,6-diamine] here?
**A.** 10 to 100 nM

**Q.** Which EC50 does the source give for `CCc1nc2ccc(F)cc2n1-c1nc(N)c(F)c(Nc2ccc(C(F)(F)F)cc2)n1` [Cpd 164, 2-(2-ethyl-6-fluoro-1H-benzimidazol-1-yl)-5-fluoro-N-[4-(trifluoromethyl)phenyl]pyrimidine-4,6-diamine] here?
**A.** 10 to 100 nM

**Q.** For `CCc1nc2ccc(F)cc2n1-c1nc(N)c(F)c(Nc2ccc(OC(F)F)cc2)n1` [Cpd 165, N-[4-(difluoromethoxy)phenyl]-2-(2-ethyl-6-fluoro-1H-benzimidazol-1-yl)-5-fluoropyrimidine-4,6-diamine], which EC50 is on record?
**A.** 1 to 10 nM

**Q.** `Cc1nc2ccccc2n1-c1nc(N)c(Cl)c(Nc2ccc(C(F)(F)F)cc2)n1` [Cpd 166, 5-chloro-2-(2-methyl-1H-benzimidazol-1-yl)-N-[4-(trifluoromethyl)phenyl]pyrimidine-4,6-diamine] was tested. Which EC50 did it give?
**A.** 100 to 3000 nM

**Q.** With `CCc1nc2ccccc2n1-c1nc(N)c(Cl)c(Nc2ccc(C(F)(F)F)cc2)n1` [Cpd 167, 5-chloro-2-(2-ethyl-1H-benzimidazol-1-yl)-N-[4-(trifluoromethyl)phenyl]pyrimidine-4,6-diamine] as the compound, how does the EC50 read?
**A.** 10 to 100 nM

**Q.** With `CCc1nc2ccccc2n1-c1nc(N)c(Cl)c(Nc2ccc(OC(F)F)cc2)n1` [Cpd 168, 5-chloro-N-[4-(difluoromethoxy)phenyl]-2-(2-ethyl-1H-benzimidazol-1-yl)pyrimidine-4,6-diamine] as the compound, how does the EC50 read?
**A.** 100 to 3000 nM

**Q.** With `Cc1nc2ccccn2c1-c1nc(N)c(F)c(Nc2ccc(C(F)(F)F)cc2)n1` [Cpd 169, 5-fluoro-2-(2-methylimidazo[1,2-a]pyridin-3-yl)-N-[4-(trifluoromethyl)phenyl]pyrimidine-4,6-diamine] as the compound, how does the EC50 read?
**A.** 100 to 3000 nM

**Q.** For `Cc1nc2ccccn2c1-c1nc(N)c(F)c(Nc2ccc(OC(F)F)cc2)n1` [Cpd 170, N-[4-(difluoromethoxy)phenyl]-5-fluoro-2-(2-methylimidazo[1,2-a]pyridin-3-yl)pyrimidine-4,6-diamine], which EC50 is on record?
**A.** 100 to 3000 nM

**Q.** For `Cc1nc2ccccn2c1-c1nc(N)c(F)c(Nc2ccc(OC(F)F)c(F)c2)n1` [Cpd 171, N-[4-(difluoromethoxy)-3-fluorophenyl]-5-fluoro-2-(2-methylimidazo[1,2-a]pyridin-3-yl)pyrimidine-4,6-diamine], which EC50 is on record?
**A.** 100 to 3000 nM

**Q.** How did the EC50 turn out when `Cc1c(N)nc(-n2c(C)nc3ccccc32)nc1Nc1ccc(C(F)(F)F)cc1` [Cpd 172, 5-methyl-2-(2-methyl-1H-benzimidazol-1-yl)-N-[4-(trifluoromethyl)phenyl]pyrimidine-4,6-diamine] was run?
**A.** 100 to 3000 nM

**Q.** For `Cc1nn2ccccc2c1-c1nc(N)c(F)c(Nc2ccc(OC(F)F)cc2)n1` [Cpd 173, N-[4-(difluoromethoxy)phenyl]-5-fluoro-2-(2-methylpyrazolo[1,5-a]pyridin-3-yl)pyrimidine-4,6-diamine], which EC50 is on record?
**A.** 100 to 3000 nM

**Q.** Which EC50 does the source give for `Cc1nn2ccccc2c1-c1nc(N)c(F)c(Nc2ccc(C(F)(F)F)cc2)n1` [Cpd 177, 5-fluoro-2-(2-methylpyrazolo[1,5-a]pyridin-3-yl)-N-[4-(trifluoromethyl)phenyl]pyrimidine-4,6-diamine] here?
**A.** 100 to 3000 nM

**Q.** With `Nc1nc(-c2c(C(F)(F)F)nc3ccc(F)cn23)nc(Nc2ccc(C(F)(F)F)cc2)c1F` [Cpd 178, 5-fluoro-2-[6-fluoro-2-(trifluoromethyl)imidazo[1,2-a]pyridin-3-yl]-N-[4-(trifluoromethyl)phenyl]pyrimidine-4,6-diamine] as the compound, how does the EC50 read?
**A.** 100 to 3000 nM

**Q.** `COc1ccc(Nc2nc(-n3c(C)nc4ccc(F)cc43)nc(N)c2F)cc1` [Cpd 179, 5-fluoro-2-(6-fluoro-2-methyl-1H-benzimidazol-1-yl)-N-(4-methoxyphenyl)pyrimidine-4,6-diamine] was tested. Which EC50 did it give?
**A.** 1 to 10 nM

**Q.** `Nc1nc(-c2c(C3CC3)nn3ccccc23)nc(Nc2ccc(OC(F)F)cc2)c1F` [Cpd 180, 2-(2-cyclopropylpyrazolo[1,5-a]pyridin-3-yl)-N-[4-(difluoromethoxy)phenyl]-5-fluoropyrimidine-4,6-diamine] was tested. Which EC50 did it give?
**A.** 100 to 3000 nM

**Q.** How did the EC50 turn out when `Nc1nc(-c2c(CO)nn3ccc(F)cc23)nc(Nc2ccc(OC(F)F)cc2)c1F` [Cpd 181, [3-(4-amino-6-{[4-(difluoromethoxy)phenyl]amino}-5-fluoropyrimidin-2-yl)-5-fluoropyrazolo[1,5-a]pyridin-2-yl]methanol] was run?
**A.** 10 to 100 nM

**Q.** For `CSc1nc2ccccc2n1-c1nc(N)cc(Nc2ccc(C(F)(F)F)cc2)n1` [Cpd 182, 2-[2-(methylsulfanyl)-1H-benzimidazol-1-yl]-N-[4-(trifluoromethyl)phenyl]pyrimidine-4,6-diamine], which EC50 is on record?
**A.** 100 to 3000 nM

**Q.** With `Cc1nc2ccc(F)cc2n1-c1nc(N)c(F)c(Nc2ccc(C(F)(F)F)nc2)n1` [Cpd 183, 5-fluoro-2-(6-fluoro-2-methyl-1H-benzimidazol-1-yl)-N-[6-(trifluoromethyl)pyridin-3-yl]pyrimidine-4,6-diamine] as the compound, how does the EC50 read?
**A.** 10 to 100 nM

**Q.** With `Cc1ccc(Nc2nc(-n3c(C)nc4ccc(F)cc43)nc(N)c2F)cc1` [Cpd 184, 5-fluoro-2-(6-fluoro-2-methyl-1H-benzimidazol-1-yl)-N-(4-methylphenyl)pyrimidine-4,6-diamine] as the compound, how does the EC50 read?
**A.** 1 to 10 nM
